Test results reported in patent US10866241B2, “Method for the prognosis and treatment of cancer metastasis” (Fundació Institut de Recerca Biomèdica (IRB Barcelona), priority 2012, dated 2020).

Columns and labels:
bone metastasis = assay: Prophylactic treatment for bone metastasis in subject with triple negative breast cancer and increased c-MAF; assay type: in vivo; details: 120 mg SC once monthly for 6 months, then every 3 months for 4 and a half years, with oral calcium and vitamin D
Description: A tumor tissue sample is obtained from a subject diagnosed as having triple negative breast cancer. The sample is sectioned into thin slices of tissue and embedded in paraffin. Each paraffin section is mounted on a slide. The slides are incubated with anti-MAF antibody. For visualization and detection of antibodies bound to MAF, antibodies conjugated with fluorescent dye are used. The slides are visualized by providing excitation beams to the fluorescent dyes. Images of fluorescent signals are taken by fluorescent microscopes. The relative expression level of c-MAF in the tumor sample is obtained by comparing the fluorescent signal in the tumor sample to that of a reference sample. The intensity in the tumor sample is correlated with the intensity in the reference sample, wherein a higher intensity in the tumor sample compared to the reference sample correlates with an increased risk of the subject having primary breast cancer metastasis to the bone. Alternatively, 16q22-24 locus,16q23 locus or c-MAF gene amplification or translocation determined using an in situ hybridization technique or similar
Based on the prognosis of increased risk of bone metastasis, the subject is administered the anti-RANKL antibody Denosumab as a prophylactic treatment for bone metastasis. 120 mg of Denosumab is administered to the subject subcutaneously (SC) once monthly for 6 months. […]

[1] = test system: c-MAF expressing MCF7 breast cancer cells; assay: Bone metastasis of c-MAF expressing MCF7 cells injected intracardiacally, with or without PTHLH-AN; assay type: in vivo, mouse; details: 6 μg twice a day intraperitoneally in PBS, 47 days, vs PBS control (FIG. 11d,e)
Description: d) Parental, c-MAF short and long-expressing parental cells labeled with the luciferase gene were injected into the left ventricle of mouse and bone colonization was analyzed by in vivo bioluminiscent imaging. The mice injected with c-MAF short and long expressing parental cells were treated or not with PTHLH antagonist peptide (7-34) inoculated intraperitoneally (6 μg/animal) twice a day during the course of the experiment. The plot represents the total photon flux ex vivo at the experiment end point, which reflects the number of metastatic cells per lesion (left panel). Osteolytic bone metastasis lesions are depicted (right panel)
e) X-RAY (CT-scan) images of representative osteolytic lesions per group. […] TRAP positive osteoclast cells (Black) along bone tumor interface from lesions were counted in at least four different fields from each independent mouse and plotted with SD values. […] The statistical differences between groups are evaluated by means of the two-tailed wilcoxon test. […]
To test whether PTHLH mediates c-MAF driven bone metastasis in breast cancer cells, we injected c-MAF expressing MCF7 breast cancer cells intracardiacally and evaluated its capacity to establish and grow bone metastasis in the presence or absence of PTHLH-AN during the span of 47 days. […]

[2] = test system: osteoclast differentiation of mouse bone marrow-derived precursor cells; assay: Osteoclast differentiation from bone marrow cells with conditioned medium, TRAP technique; assay type: cell-based; details: co-incubation with PTHLH antagonist peptide (7-34), 5 μg/ml (FIG. 11c)
Description: b) Assay of osteoclast differentiation from mouse bone marrow-derived precursor cells using conditioned medium originated from MCF7 parental cells or cells over-expressing any of the c-MAF isoforms (short—short isoform and long—long isoform). The number of osteoclasts is measured by means of the TRAP technique (>3 Multinucleated cells).
c) Bone marrow cells treated with 50:50 osteoclast differentiation and conditioned media (CM) parental, c-MAF short and Long-expressing parental cells and BoM2 bone metastatic MCF7 cell derivatives or without CM but with human PTHLH antagonist peptide (7-34)(5 μg/ml), The number of osteoclasts is measured by means of the TRAP technique (Ostoclasts are >3 Multinucleated cells, Highlighted by white arrows) and normalized to control.
Without a direct activity of c-MAF in providing bone metastasis functions to breast cancer cells, c-MAF may instead transcriptionally control the activity of genes promoting homing and bone remodeling capabilities to colonize the bone. PTHLH expression was under the control of c-MAF. An observation confirmed by qPCR analysis (FIG. 11a). Further, patient breast cancer metastasis (GSE14020) growing in the bone retained c-MAF expression compared to metastasis elsewhere (FIG. 11b). Moreover, 77% of metastasis expressing MAF and PTHLH above the average were bone metastasis (FIG. 11b). […]

Row | Substance | evidence of bone metastasis after 5 years (bone metastasis) | extent of the hind limb osteolytic lesions [1] | number of osteoclast (TRAP+ cells) at the metastatic lesion perimeter [1] | induction of osteoclast differentiation in vitro by conditioned media from cells expressing c-MAF [2]
1 | Denosumab: fully human monoclonal antibody which binds to RANKL and prevents its activation, CAS number 615258-40-7 | free of any evidence of bone-metastasis | – | – | –
2 | PTHLH-AN: human PTHLH antagonist peptide (7-34Aa) | – | dramatic reduction | reduction in the number of osteoclast | prevented
